Test results from PMC11302729, “Repurposing Hsp90 inhibitors as antimicrobials targeting two-component systems identifies compounds leading to loss of bacterial membrane integrity” (Microbiology Spectrum, 2024).
In brackets after ≈: the same amount, converted by molar mass. Several values for one entry are separate records, joined by “and”; a condition that tells them apart may be missing. Identical values can stand only once. Like-named read-outs stand apart in the source and are kept apart here.

What was measured:
Assay type in all cases: cell-based
[1] = system: Pasteurella haemolytica ATCC 29701; test: MIC (microdilution) against P. haemolytica; conditions: Mannheimia haemolytica
Protocol: (§1) Staphylococcus aureus str. Newman, Enterococcus faecalis vanA (strain E0155), Enterococcus faecium vanA (strain E1654), Escherichia coli ATCC 25922, Escherichia coli D21f2 with a truncated LPS barrier, Escherichia coli JW5503 (ΔtolC) ([49]), Pseudomonas aeruginosa ATCC 27853, and Pasteurella haemolytica ATCC 29701 were grown in Mueller-Hinton Broth (MHB) (Oxoid, Basingstoke, UK) and incubated at 37°C.
(§2) The minimal inhibitory concentration was determined using the microdilution method following the guidelines of the European Committee on Antimicrobial Susceptibility Testing ([50]). Briefly, a series of twofold dilutions in MHB of each compound were made in a 96-well plate, with final concentrations ranging from 50 to 0.39 µg/mL in 100 µL final volume per well. A hundred microliters of 1:100 dilution of an overnight culture of the correspondent bacteria in MHB was added to each well. Plates were incubated for 18 hours at 37°C. MIC was recorded as the lowest concentration where no growth was detected as measured by optical density at 600 nm (OD600) using Spectramax M5 (Molecular Devices LLC, San Jose, CA, USA). […] Wells containing bacteria with or without 1% DMSO and medium alone were included as controls in every plate.

[2] = system: Staphylococcus aureus str. Newman; test: Minimal inhibitory concentration (microdilution) against S. aureus; conditions: for MIC S. aureus: Table ST3
Protocol: as §1, §2

[3] = system: Escherichia coli ATCC 25922; test: MIC (microdilution) against E. coli; conditions: Escherichia coli, ATCC25922; Table ST1; read-out: MIC E. coli
Protocol: as §1, §2

[4] = system: Escherichia coli JW5503 (ΔtolC); test: MIC (microdilution) against E. coli JW5503; conditions: Escherichia coli, read-out: MIC E. coli JW5503
Text: (§3) We also tested the inhibitory activity of compounds in two different E. coli mutants: (i) E. coli JW5503 that lacks TolC efflux pumps and (ii) E. coli D21f2 that has a defective LPS inner core increasing permeability of the outer membrane. E. coli D21f2 has a slightly higher susceptibility to DPP compounds than E. coli ATCC25922.
as §1, §2

[5] = system: Pseudomonas aeruginosa ATCC 27853; test: MIC (microdilution) against P. aeruginosa; conditions: Pseudomonas aeruginosa, ATCC27853; Table ST1; read-out: MIC P. aeruginosa
Protocol: as §1, §2

[6] = in vitro; conditions: human
Protocol: (§4) HEK293 cells and the human hepatocellular carcinoma cells (HepG2) were routinely cultured in 75-cm^2 culture flasks (Corning Incorporated) on high-glucose Dulbecco’s modified Eagle medium (DMEM) containing glutaMax and phenol red (Gibco) supplemented with 1% penicillin/streptomycin (Gibco) and 10% fetal bovine serum (FBS) (Gibco). Cells were maintained at 37°C and 5% CO2.
(§5) Cytotoxicity assays with HEK293 and HepG2 cells were performed in 96-well plates seeded with 5 × 10^4 cells/well and incubated for 24 hours to reach 80%–90% confluency. Exterior wells were filled with only medium to prevent evaporation. Culture medium was removed from the cells, and 100 µL of exposure medium [high-glucose DMEM without phenol red (Gibco)] was added to avoid a potential interaction between FBS components or antibiotics and tested compounds. A twofold dilution series of compounds in exposure medium (range 100–3.2 μg/mL) was made in a separate 96-well plate, and 100 µL of each of these dilutions was added to the assay plates for 24 hours at 37°C in the presence of 5% CO2. Control wells contained cells with DMEM, DMEM + 1% DMSO (vehicle control), or DMEM + 20% DMSO. Wells without cells were also included as negative control. After exposure, the medium was replaced with 100 µL 10% Alamar Blue (Invitrogen) in exposure medium. After 45 min incubation at 37°C and 5% CO2, fluorescence was measured on a Spectramax M5 plate reader at λex = 541 nm, λem = 590 nm. Cell viability compared with the vehicle control was calculated, and inhibition curves for each compound were fitted (non-linear curve fit, four variables, bottom constrained = 0) in Prism 9 (GraphPad Software, San Diego, USA).

[7] = system: HEK293 cells; test: in vitro; conditions: LC50/MIC (HEK293 / S. aureus)
Protocol: as §4, §5

[8] = system: S. aureus str. Newman; test: Membrane permeability using SYTOX-Green, flow cytometry; conditions: for % FITC stained bacteria 0.5 xMIC: 0.5× MIC; for % FITC stained bacteria 0.5 xMIC / % FITC stained bacteria 1 xMIC / % FITC stained bacteria 2 xMIC: 5 min exposure; for % FITC stained bacteria 1 xMIC: 1× MIC; for % FITC stained bacteria 2 xMIC: 2× MIC; for Membrane damage: if considered to cause membrane damage to S. aureus
Protocol: S. aureus str. Newman was grown to exponential phase (OD600 = 0.4) in MHB media. […] Nisin (Sigma-Aldrich) and novobiocin (Sigma-Aldrich) were used as positive and negative controls for membrane permeabilization, and stained and unstained untreated controls were also included in each assay. After exposure, samples were centrifuged at 4,000 r.p.m. for 5 min and resuspended in PBS. Bacteria were dyed by adding the fluorescent nuclear stain SYTOX Green (Molecular Probes, Invitrogen) to a final concentration of 0.5 µM and incubating for 5 min in the dark. Samples were centrifuged again and resuspended with PBS to remove unbound stain. Three hundred microliters of each sample was transferred to a clean well in a 96-well clear-bottom plate (Corning Incorporated). Fluorescence was measured in CytoFLEX flow cytometer (Beckman Coulter, Brea, CA, USA) using the green (FITC) channel with the excitation wavelength at 488 nm. Overlay histograms were created with CytExpert Software (Beckman Coulter, Brea, CA, USA).

[9] = system: sheep red blood cells; test: Haemolysis assay; conditions: if considered to cause haemolysis to red blood cells
Protocol: The hemolysis assay was adapted from the study by Evans et al. ([65]). Briefly, sheep RBC 10% washed pooled cells in PBS (Rockland Immunochemicals, Limerick, PA, USA) were diluted 1:5 to give a final concentration of 2% RBCs in PBS. […] A non-treated control, 1% DMSO (vehicle control), and complete cell lysis control (Triton-X 2%) were included in each assay. After exposure samples were centrifuged at 4°C at 1,000 g for 15 min and 100 µL of supernatant transferred to a clean well in a 96-well, clear, flat-bottom plate (Corning Incorporated). Released hemoglobin was measured by absorption at 540 nm using a Spectramax M5 plate reader. The experiments were performed in quadruplicate. The percentage of hemolysis was calculated as follows:
Hemolysis=A540nm,testcondition−A540nm,DMSOcontrol/A540nm,TritonXControl−A540nm,DMSOcontrol

[10] = system: Enterococcus faecium vanA (strain E1654); test: MIC (microdilution) against E. faecium; conditions: Enterococcus faecium, read-out: MIC E. faecium
Protocol: as §1, §2

[11] = system: Enterococcus faecalis vanA (strain E0155); test: MIC (microdilution) against E. faecalis; conditions: Enterococcus faecalis, read-out: MIC E. faecalis
Protocol: as §1, §2

[12] = system: Escherichia coli D21f2 with a truncated LPS barrier; test: MIC (microdilution) against E. coli D21f2; conditions: read-out: MIC E coli D21f2
Text: as §3, §1, §2

[13] = ATCC29701, read-out: MIC P. haemolytica, Table ST1
[14] = Staphylococcus aureus, NEWMAN, Fig 2
[15] = Staphylococcus aureus, NEWMAN, Fig 2, value in parentheses
[16] = Table ST3, value in parentheses
[17] = ATCC29701, Table ST1, read-out: MIC P. haemolytica

Row | SMILES | MIC [1, 13] [µg/mL] | MIC [2, 14] [µg/mL] | MIC [2, 15] [µM] | MIC S. aureus [2] [µg/mL] | MIC [2, 16] [µM] | MIC [3] [µg/mL] | MIC [4] [µg/mL] | MIC [5] [µg/mL] | CC50 at 24 h [6] | Selectivity Index [7] | % FITC stained bacteria 0.5 xMIC [8] [%] | % FITC stained bacteria 1 xMIC [8] [%] | % FITC stained bacteria 2 xMIC [8] [%] | Membrane damage [8] | Haemolysis [9] | MIC [10] [µg/mL] | MIC [11] [µg/mL] | MIC [12] [µg/mL] | MIC [1, 17] [µg/mL]
1 | CCOc1ccc(-c2[nH]nc(C(F)(F)F)c2-c2ccccc2)c(O)c1 [DPP-3] | 50 (≈ 144 µM) | 6.25 | 17.9 | 6.25 (≈ 17.9 µM) | 17.86 | > 250 | 1.56 (≈ 4.48 µM) | > 250 | 25.6 µg/mL and 76.5 µM | 4.1 | 35.78 | 49.41 | 58.28 | YES | YES | > 250 | > 250 | – | –
2 | Oc1cc(OCc2ccccc2)ccc1-c1[nH]nc(C(F)(F)F)c1-c1ccc(Cl)cc1 [DPP-8] | 250 (≈ 562 µM) | 1.56 | 3.51 | 1.56 (≈ 3.51 µM) | 3.51 | > 250 | 12.5 (≈ 28.1 µM) | > 250 | 14.2 µg/mL and 32 µM | 9.14 | 12.26 | 32.15 | 36.10 | YES | YES | 3.12 (≈ 7.01 µM) | 1.56 (≈ 3.51 µM) | 25 (≈ 56.2 µM) | –
3 | Oc1ccc(-c2onc(C(F)(F)F)c2-c2ccc(Cl)cc2)c(O)c1 [DPP-11] | 62.5 (≈ 176 µM) | 3.12 | 8.76 | 3.12 (≈ 8.77 µM) | 8.76 | > 250 | 1.56 (≈ 4.39 µM) | > 250 | 3.41 µg/mL and 9.61 µM | 1.10 | 24.77 | 28.12 | 57.97 | YES | YES | 12.5 (≈ 35.1 µM) | 12.5 (≈ 35.1 µM) | 25 (≈ 70.3 µM) | –
4 | FC(F)(F)c1n[nH]c(-c2ccccc2)c1-c1ccc(Cl)cc1 [DPP-21] | – | 1.56 | 4.8 | 1.56 (≈ 4.83 µM) | 4.8 | > 250 | 1.56 (≈ 4.83 µM) | > 250 | – | 4.56 | 31.51 | 35.84 | 51.03 | YES | YES | 12.5 (≈ 38.7 µM) | 12.5 (≈ 38.7 µM) | > 250 | 12.5 (≈ 38.7 µM)
5 | Oc1ccccc1-c1[nH]nc(C(F)(F)F)c1-c1ccc(Cl)cc1 [DPP-22] | – | 1.56 | 4.59 | 1.56 (≈ 4.61 µM) | 4.59 | > 250 | 1.56 (≈ 4.61 µM) | > 250 | 2.89 µg/mL and 8.5 µM | 1.85 | – | – | – | – | YES | 12.5 (≈ 36.9 µM) | 12.5 (≈ 36.9 µM) | 25 (≈ 73.8 µM) | 12.5 (≈ 36.9 µM)
